From ChEMBL document CHEMBL1833968, “Synthesis of novel triplet drugs with 1,3,5-trioxazatriquinane skeletons and their pharmacologies. Part 2: Synthesis of novel triplet drugs with the epoxymethano structure (capped homotriplet)” (Bioorg Med Chem Lett, 2011) come the findings set out here.

Activity calls are given as the source filed them. No cut-off for these calls is given here.

The species named for assay [1] is Mus musculus. Nature of the assay: Selectivity ratio of Ki for mouse delta opioid receptor to mouse mu receptor.
The target in assay [2] is Delta-type opioid receptor (Mus musculus, UniProt P32300). Nature of the assay: Displacement of [3H]DPDPE from mouse delta opioid receptor in whole brain without cerebellum. In general terms: Loss of bound radioactivity is the signal in a displacement assay; it reports binding, not function.
Another assay addresses Mu-type opioid receptor (Mus musculus, UniProt P42866). Nature of the assay: Displacement of [3H]DAMGO from mouse mu opioid receptor in whole brain without cerebellum.
Assay [3] addresses Kappa-type opioid receptor (Cavia porcellus, UniProt P41144). The experiment in a line: Displacement of [3H]U69,593 from guinea pig kappa opioid receptor in cerebellum.
Assay [4] can be described thus: Selectivity ratio of Ki for guinea pig kappa opioid receptor to mouse mu opioid receptor.
The test system of assay [5] is Mus musculus. The experiment in a line: Antinociceptive activity in sc dosed mouse assessed as inhibition of acetic acid-induced writhing administered 15 mins before acetic acid challenge measured after 10 mins relative to control. The class given is functional. In general terms: In writhing tests, fewer writhes than in controls are read as antinociception.
Assay [6] relates to Mus musculus. Nature of the assay: Ratio of morphine ED50 to compound ED50 for antinociceptive activity in sc dosed mouse assessed as inhibition of acetic acid-induced writhing administered 15 mins before acetic acid challenge measured after 10 mins. The class given is functional.

Sequence of Delta-type opioid receptor (P32300 whole entry): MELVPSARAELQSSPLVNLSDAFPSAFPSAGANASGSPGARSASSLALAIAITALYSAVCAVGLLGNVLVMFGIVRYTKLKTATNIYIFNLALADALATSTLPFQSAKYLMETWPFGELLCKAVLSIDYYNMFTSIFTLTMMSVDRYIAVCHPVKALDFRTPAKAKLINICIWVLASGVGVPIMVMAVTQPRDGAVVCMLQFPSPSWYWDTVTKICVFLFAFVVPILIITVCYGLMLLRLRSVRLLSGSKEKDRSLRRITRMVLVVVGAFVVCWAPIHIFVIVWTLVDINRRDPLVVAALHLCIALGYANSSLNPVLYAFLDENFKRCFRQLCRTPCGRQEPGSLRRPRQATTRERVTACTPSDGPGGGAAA
Sequence of Mu-type opioid receptor (P42866 whole entry): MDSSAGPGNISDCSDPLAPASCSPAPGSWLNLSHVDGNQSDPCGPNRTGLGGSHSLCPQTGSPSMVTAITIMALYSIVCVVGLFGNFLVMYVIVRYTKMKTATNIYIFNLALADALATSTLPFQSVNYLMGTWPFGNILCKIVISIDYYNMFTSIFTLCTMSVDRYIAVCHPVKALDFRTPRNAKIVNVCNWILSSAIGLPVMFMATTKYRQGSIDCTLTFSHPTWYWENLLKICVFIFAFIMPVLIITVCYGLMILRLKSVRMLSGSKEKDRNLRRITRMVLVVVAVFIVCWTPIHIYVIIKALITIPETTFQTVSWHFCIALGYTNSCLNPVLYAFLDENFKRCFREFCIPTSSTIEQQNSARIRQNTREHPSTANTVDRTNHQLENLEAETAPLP
Sequence of Kappa-type opioid receptor (P41144 whole entry): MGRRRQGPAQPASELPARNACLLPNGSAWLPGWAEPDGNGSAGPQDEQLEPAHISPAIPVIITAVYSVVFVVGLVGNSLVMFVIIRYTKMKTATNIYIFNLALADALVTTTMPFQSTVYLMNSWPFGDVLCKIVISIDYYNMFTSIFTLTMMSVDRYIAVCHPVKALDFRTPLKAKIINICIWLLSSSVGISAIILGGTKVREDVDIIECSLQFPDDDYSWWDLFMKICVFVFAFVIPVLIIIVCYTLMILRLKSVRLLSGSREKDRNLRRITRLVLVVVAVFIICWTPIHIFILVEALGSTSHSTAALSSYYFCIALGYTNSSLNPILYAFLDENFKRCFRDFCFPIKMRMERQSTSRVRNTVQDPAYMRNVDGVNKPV

As a reminder, the Ki is a measure of affinity in units of concentration, obtained from inhibition or displacement. In the case of `Oc1ccc2c3c1O[C@@H]1[C@]34CCN(CC3CC3)[C@H](C2)[C@]4(O)CC[C@@]12C=N[C@@H]([C@]1(O)CC[C@@]3(O)[C@H]4Cc5ccc(O)c6c5[C@@]3(CCN4CC3CC3)[C@H]1O6)O2`, the Ratio Ki was 38.4 in the assay listed under Mus musculus [1] and 1.61 in assay [4]. Moreover, the inhibitory constant (Ki) in assay [2] was determined as 39.6 nM; at Mu-type opioid receptor it was 1.03 nM; in assay [3], 1.66 nM.

For `Oc1ccc2c3c1O[C@H]1[C@]4(CC[C@@]5(O)[C@@H](C2)N(CC2CC2)CC[C@]315)O[C@@H]1CO[C@H]2N1[C@@H]4O[C@]21CC[C@@]2(O)[C@H]3Cc4ccc(O)c5c4[C@@]2(CCN3CC2CC2)[C@H]1O5`, the Ki in assay [2] was > 1000 nM; on Mu-type opioid receptor it was 38.2 nM; in assay [3], 247 nM. For the same compound, in assay [4], the Ratio Ki stood at 6.47.

As for `Oc1ccc2c3c1O[C@@H]1[C@]34CCN(CC3CC3)[C@H](C2)[C@]4(O)CC[C@@]12C=N[C@H]([C@]1(O)CC[C@@]3(O)[C@H]4Cc5ccc(O)c6c5[C@@]3(CCN4CC3CC3)[C@H]1O6)O2`, the Ratio Ki in the assay filed under Mus musculus [1] was found to be 28.3; in assay [4] it was 0.61. The Ki in assay [2] was 53.7 nM; on Mu-type opioid receptor, 1.9 nM; in assay [3], 1.16 nM.

Broadly, the ED50 is the dose at which the effect has come halfway, by size or by number of responders. Turning to `CN1CC[C@]23c4c5ccc(O)c4O[C@H]2[C@]2(CC[C@@]3(O)[C@H]1C5)O[C@H]1CO[C@@H]3N1[C@H]2O[C@]31CC[C@@]2(O)[C@H]3Cc4ccc(O)c5c4[C@@]2(CCN3C)[C@H]1O5`, the Ratio Ki in the assay listed under Mus musculus [1] was determined as 25.3; in assay [4], 161. The figures for the Ki (in assay [2]; at Mu-type opioid receptor; in assay [3]) were 52.9 nM, 2.09 nM and 337 nM, respectively. In the assay with Mus musculus [5], the ED50 was 0.14 mg/kg. The inhibition entry in the assay with Mus musculus [5] is “Dose-dependent effect”. The “Ratio ED50” value with Mus musculus [6] is listed as 4.

Regarding `Oc1ccc2c3c1O[C@H]1[C@]4(CC[C@@]5(O)[C@@H](C2)N(CC2CC2)CC[C@]315)O[C@H]1CO[C@@H]2N1[C@H]4O[C@]21CC[C@@]2(O)[C@H]3Cc4ccc(O)c5c4[C@@]2(CCN3CC2CC2)[C@H]1O5`, the Ratio Ki in the assay listed under Mus musculus [1] was found to be 33.6; in assay [4], 5.73. The Ki in assay [2] was 16.2 nM; on Mu-type opioid receptor, 0.48 nM; in assay [3] it was 2.75 nM.

For `Oc1ccc2c3c1O[C@H]1[C@]4(CC[C@H]5[C@@H](C2)N(CC2CC2)CC[C@@]351)O[C@H]1CO[C@@H]2N1[C@H]4O[C@]21CC[C@H]2[C@H]3Cc4ccc(O)c5c4[C@@]2(CCN3CC2CC2)[C@H]1O5`, the Ratio Ki in the assay listed under Mus musculus [1] came to 10.8; in assay [4], 8.84. The Ki was 7.8 nM in assay [2], 0.719 nM at Mu-type opioid receptor and 6.36 nM in assay [3].

Consider `C=CCN1CC[C@]23c4c5ccc(O)c4O[C@H]2C(=O)CC[C@@]3(O)[C@H]1C5`, for which the inhibition result with Mus musculus [5] was “inactive”.

On to `CC(C)CN1CC[C@]23c4c5ccc(O)c4O[C@H]2[C@]2(CC[C@@]3(O)[C@H]1C5)O[C@H]1CO[C@@H]3N1[C@H]2O[C@]31CC[C@@]2(O)[C@H]3Cc4ccc(O)c5c4[C@@]2(CCN3CC(C)C)[C@H]1O5`, for which the Ki in assay [2] is > 1000 nM; on Mu-type opioid receptor, 25.3 nM; in assay [3], 119 nM. Moreover, in assay [4], the Ratio Ki came out at 4.7.

Regarding `Oc1ccc2c3c1O[C@H]1[C@]4(CC[C@@]5(O)[C@@H](C2)N(CC2CCC2)CC[C@]315)O[C@H]1CO[C@@H]2N1[C@H]4O[C@]21CC[C@@]2(O)[C@H]3Cc4ccc(O)c5c4[C@@]2(CCN3CC2CCC2)[C@H]1O5`, the Ratio Ki in the assay filed under Mus musculus [1] was 19.2; in assay [4] it was 67.7. Moreover, the Ki in assay [2] worked out at 50 nM; on Mu-type opioid receptor, 2.6 nM; in assay [3] it was 176 nM.

`Oc1ccc2c(c1)[C@]13CCN(CC4CC4)[C@H](C2)[C@]1(O)CC[C@@]1(C3)O[C@H]2CO[C@@H]3N2[C@H]1O[C@]31CC[C@@]2(O)[C@H]3Cc4ccc(O)cc4[C@@]2(CCN3CC2CC2)C1`: the results for the Ratio Ki (in the assay filed under Mus musculus [1]; in assay [4]) were 7.76 and 11.2, respectively. Also, the Ki is 5.98 nM in assay [2], 0.771 nM at Mu-type opioid receptor and 8.67 nM in assay [3].
